No end group written: not given here.
Columns and labels:
Assay type in all cases: cell-based, human
Caco-2 cells = test: Trypan blue dye exclusion assay, viability of Caco-2 cells; details: 200 μM concentration
Procedure: Human Cancer Cell Cultures. Human colon epithelial cancer cell line Caco-2, liver epithelial cancer cell line HepG2 and breast epithelial cancer cell line HTB-26 were cultured separately at 37° C. in Dulbecco's Modified Eagles Medium (DMEM) in the presence of 10% fetal bovine serum, supplemented with 1 mM L-glutamine, sodium pyruvate, 1 mM sodium bicarbonate, and 50 μg/mL gentamycin. Human lung epithelial cancer cell line NCI-H1299 was cultured in RPMI-1640 medium supplemented with 10% fetal bovine serum. After cell growth reached 70%, cell viability was monitored by employing the trypan blue dye exclusion assay after peptide treatments. Briefly, the monolayer was allowed to grow for 2-3 days at 37° C. on 24-well flat-bottom plates. One hundred microliters (100 μL) of rice bran peptide fractions at 1 mg/mL protein content was added to the cultures. For positive control genistein at 200 and 400 μM in saline and for negative control saline alone was used. After 24-48 h of treatments, the medium was removed, and the cells were briefly dissociated with 0.1% trypsin and 0.53 mM ethylenediaminetetraacetic acid (EDTA) solution. Following this, 0.5% trypan blue dye mixed in growth medium was added to each well. Samples were then aspirated from each well and loaded onto chambers in a hemocytometer cell, and cell counts were taken. […]

[1] = system: amyloid-induced neuroblastoma cells (IMR-32); test: Protection against amyloid beta (1-42) toxicity in neuroblastoma cells, MTS assay; details: compared to amyloid-induced cells not treated with peptides
Procedure: Evaluation of Anti-Alzheimer's Disease Activity: Human neuroblastoma cells (IMR-32-ATCC Number CCL-127) was used as model system to evaluate the protective role of rice bran peptide fractions against amyloid beta (1-42) (Cat. No. PP69, EMD Chemicals, Inc., San Diego, Calif.) dependent toxicity. Human neuroblastoma cells were grown in the presence of beta amyloid peptide with and without bran peptide fractions at different levels. Cell survival to the amyloid-induced neuroblastoma cells upon bran peptide treatments was examined by the MTS [(3-(4,5-dimethylthiazole-2-yl)-5-(3-carboxymethoxyphenyl)-2-(4-sulfophenyl)-2H-tetrazolium, inner salt] assay, and compared to the cytotoxicity observed with amyloid-induced neuroblastoma cells.
Neuroblastoma cells were treated with amyloid peptide followed by treatment with rice bran peptide fractions. Cytotoxicity to the amyloid-induced neuroblastoma cells was examined by the MTS assay.

colon cancer cells = details: pH 7
Procedure: An RSM design with a 3-factorial model was designed to use combinations of pH, RH (relative humidity), temperature and degree of glycosylation to evaluate enhanced anti-cancer activity of a modified (glycosylated) peptide. Peptide-glucose mixture samples were prepared at the following conditions/combinations: RH 55, 65, & 75 at pHs 6, 7 and 8 maintained at 40, 50 and 60° C. temperatures and tested for growth inhibition activity on colon cancer cells. The degree of glycosylation increased with increasing time at varying RH, and achieved a maximum of ˜20% degree of glycosylation.
Optimization for Degree of Glycosylation: The bioactive pentapeptide (0.02 g) (SEQ ID NO: 1) and D-glucose (0.002 g) were dissolved in water to give a 10% (w/v) protein solution. The solution pH was adjusted to varying pHs based on RSM design (6, 7, 8) and stirred for 10 min, and freeze-dried. The freeze-dried mixture was placed on an aluminum plate, and incubated at 50° C. at varying relative humidity ([…], 65%, 75%) based on the RSM design illustrated below in Table 3.

| Compound | viable cells on Caco-2 cell line (Caco-2 cells) [viable cells/mL] | reduction in cytotoxicity of amyloid-induced neuroblastoma cells [1] [%] | cancer cell activity inhibition (colon cancer cells) [%] |
| --- | --- | --- | --- |
| O=c1c(-c2ccc(O)cc2)coc2cc(O)cc(O)c12 [Genistein] | 20000 |  |  |
| EQRPR [bioactive pentapeptide, Glu-Gln-Arg-Pro-Arg] |  | ~45 | ~80 |
